Where a SMILES comes first, the peptide text is derived from it. The star is where a group is joined. Succinyl(4-O-cholesteryl) = CC(C)CCC[C@@H](C)[C@H]1CC[C@H]2[C@@H]3CC=C4C[C@@H](OC(=O)CCC(=O)*)CC[C@]4(C)[C@H]3CC[C@]12C

The test system of series [1] is Pseudomonas aeruginosa with fluorescence (PAO1-GFP). In words: Abdominally infected zebrafish model. It counts as in vivo. Particulars: DP7-C 1 mg/mL; green fluorescence at 3 h, 8 h, 18 h. The protocol:
Next, we established an abdominally infected zebrafish model through Pseudomonas aeruginosa with fluorescence (PAO1-GFP) to further verify the anti-infection effect of DP7-C.
The male and female AB wild zebrafish were mated according to the mating and breeding procedures. After spawning, the roe was collected, placed in an incubator at 28° C. and incubated in the seawater containing PTU. The seawater containing PTU was changed once a day. When zebrafish was incubated for 48 h, Pseudomonas aeruginosa with fluorescence (PAO1-GFP) diluted with DP7-C and normal saline was intraperitoneally injected, and photographs were taken at 3 h, 8 h and 18 h under a fluorescence microscope to observe the growth of PAO1-GFP in the abdomen of zebrafish.

Series [2] relates to C26 mouse colon cancer peritoneal metastasis. The series can be described thus: C26 mouse colon cancer peritoneal metastasis model. It counts as in vivo. How it is done: In order to further characterize the application potential of DP7-C micelles in tumor therapy, we established a C26 mouse colon cancer peritoneal metastasis model and used DP7-C to transmit anti-VEGF siRNA therapeutic genes for therapeutic research. • (1) Establishment of abdominal metastasis model: on day 0, female BALB/c mice aged 6-8 weeks are intraperitoneally injected with 0.1 ml of cell suspension (containing about 1×10^5 C26 cells). • (2) On day 3, mice are randomly divided into 4 groups, 8 mice for each group, and are labeled. • (3) Four groups of mice are intraperitoneally injected with 10 doses of normal saline (blank control group), blank DP7-C micelle (17.5 μg), DP7-C/no-sense control siRNA (Scramble siRNA) complex (17.5 μg/3.5 μg) or DP7-C/VEGF siRNA complex (17.5 μg/3.5 μg) respectively. • (4) On day 20, when the mice in the control group are already very weak, all the mice are killed by cervical dislocation; the tumor tissues in the abdominal cavity as well as the heart, liver, spleen, lung and kidney tissues are immediately collected, weighed and analyzed. The ascites of each group of mice is also collected and measured, and CD31 immunohistochemical staining is performed on tumor tissues of each experimental group. The collected heart, liver, spleen, lung and kidney tissues are analyzed by HE staining.

Series [3] is described as follows: Physical characteristics of DP7-C micelles (Malvin particle size meter, appearance). It counts as physicochemical. The text has this: We detected some physical characteristics such as particle size and Zeta potential of DP7-C micelles by the atomic force microscope and Malvin particle size meter. • 1 Atomic force microscope photography: prepare different concentrations of DP7-C solution, add to the mica sheets dropwise and dry naturally. Put the mica sheets coated with DP7-C on the atomic force microscope for photography. • 2 Detection of particle size and Zeta potential: dissolve DP7-C in Milliq water, determine particle size and Zeta potential by Malvin particle size meter, and detect each sample for four times to obtain their average value. • 3 Appearance and solution state of DP7-C: observe the appearance of MilliQ water, DP7-C water solution and lyophilized powder, and take photos with a camera; wherein, a is MilliQ water, b is DP7-C dissolved in aqueous solution, C is the state of DP7-C lyophilized powder after redissolving, and d is the shape and color of DP7-C lyophilized powder.

The next series deals with red blood cells. In words: Hemolysis test in vitro. It counts as cell-based, human (healthy volunteers). How it is done: In the hemolysis test, DP7 and DP7-C at the same concentration were detected for the hemolysis of red blood cells. • 1. Take the blood of healthy volunteers and put into an anticoagulant tube and gently mix. • 2. Take out the anticoagulant, add isometric physiological saline, mix slowly and evenly, centrifuge at 400×g for 10 min, and discard the supernatant. • 3. Slowly mix the red blood cells and wash with PBS, centrifuge at 400×g for 10 min, discard the supernatant, and wash the cell precipitate with PBS for three times. • 4. Dilute with PBS to obtain 20% (v/v) red blood cell solution, which can be used immediately or stored at 4° C. for about 2 weeks (without hemolysis). • 5. Dilute the drug into a series of concentration gradients with PBS, add 100 μL of drug into a 96-well plate, take 100 μL of 2% Twain 20 as the positive control, add 100 μL of PBS to the negative control. Repeat the process 3 times for each concentration of drug. • 6. Dilute 20% (v/v) of red blood cell solution with PBS according to the volume ratio of 1:20, mix evenly and add to a 96-well plate, with the drug concentration of 100, 200, 400, 600, 800, 1000, 1200, 1600 μg/mL respectively, and incubate at 37° C. for 1 h. • 7. Incubate the mixture of drugs and red blood cells, centrifuge at 900×g for 10 min, add 160 μL of the supernatant to a new 96-well plate, and read the absorbance value at OD 450 nm. • 8. According to the absorbance value of A450, calculate the percentage of hemolysis corresponding to each concentration of drugs.
The calculation formula of the percentage of hemolysis is: […]

Series [4] concerns macrophages, neutrophils and monocytes in the abdominal cavity. In words: Detection of activated immune-related cells in abdominal cavity (flow cytometry). It counts as in vivo, mouse. Particulars: 24 h after 200 μL of 1 mg/mL i.p. The protocol:
Grouping: The mice are randomly divided into two groups (NS group and DP7-C group) with 5 mice in each group.
Each mouse in the DP7-C group is given 200 μL of 1 mg/mL DP7-C, while each mouse in the NS group is injected with 200 μL of normal saline. The mice of both groups are killed 24 h later. Each mouse is intraperitoneally injected with 5 mL of normal saline. By gently massaging the abdomen, the ascites in the abdominal cavity is aspirated to calculate the cell concentration and total cell count there. The lymphocyte typing of the ascites is detected by a flow cytometry, the percentage of macrophages, neutrophils and inflammatory monocytes in total cells is analyzed, and the number of macrophages, neutrophils and inflammatory monocytes is calculated according to the results of flow cytometry and the total number of cells in ascites.

[5] abbreviates: intraperitoneal injection, 10 doses, day 20.
Setting [6] is: Milliq water, Malvin particle size meter.

On to `CC[C@H](C)[C@H](NC(=O)[C@H](CCCNC(=N)N)NC(=O)[C@H](Cc1c[nH]c2ccccc12)NC(=O)[C@H](CCC(N)=O)NC(=O)[C@@H](NC(=O)CCC(=O)O[C@H]1CC[C@@]2(C)C(=CC[C@H]3[C@@H]4CC[C@H]([C@H](C)CCCC(C)C)[C@@]4(C)CC[C@@H]32)C1)C(C)C)C(=O)N[C@@H](CCCNC(=N)N)C(=O)N[C@H](C(=O)N[C@@H](C)C(=O)N[C@H](C(=O)N[C@H](C(=O)N[C@@H](CCCNC(=N)N)C(=O)N[C@@H](CCCCN)C(N)=O)[C@@H](C)CC)C(C)C)C(C)C` [DP7-C, Chol-suc-VQWRIRVAVIRK-NH2] ({Succinyl(4-O-cholesteryl)}-VQWRIRVAVIRK-NH2), for which the “growth rate of PAO1-GFP in zebrafish abdominal cavity” value in series [1] is “much lower than that of NS group”. In series [2] (heart, liver, spleen, lung, kidney), the “HE staining of major organ tissues” value was “no significant pathological changes”. In addition, in series [2] (setting [5]), the average tumor weight was determined as 7.94 ± 0.53 g and the “volume of ascites (printed as average tumor weight)” value was found to be 1.17 ± 0.51 mL. In series [3] (setting [6]), the Zeta potential result is reported as “about 28.8±0.27 mV” and the particle size entry is recorded as “about 24.3±1.5 nm”. Also, the solubility in water entry in series [3] (lyophilized powder) is reported as “soluble in water”. The “appearance of hemolysis test” value with red blood cells (FIG. 5B) is “red blood cells are not lysed”. Also, in the series with red blood cells (drug concentration more than 0.8 mg/mL, 37° C. 1 h), the “degree of lysis to red blood cells” value is given as “much less than DP7”. Also, the “total number of cells in the abdominal cavity” value in series [4] was “increased significantly”. In series [4] (abdominal cavity, NS 2.7%), this compound displayed a percentage of monocytes of 32.8%. In series [4] (abdominal cavity, NS 38.8%), this compound had a percentage of macrophages of 50.8%.

Source of the values: US20250249110A1, “ANTIMICROBIAL PEPTIDE DERIVATIVE AND USE THEREOF” (SICHUAN UNIVERSITY, priority 2016, published 2025).
